# Source: patent US5214048A, “Oxetanocins” (priority 1987, dated 1993)
# Legend:
# [1] = test system: cytomegalovirus (A01169 strain); assay: Anti-cytomegalovirus activity (plaque formation on human fetal fibroblasts); type: cell-based; details: for IC50: Human betaherpesvirus 5, Fibroblast, 240 h, human fetal fibroblasts, 10 days
# [2] = test system: B lymphocyte (spleen cells stimulated by LPS); assay: Inhibition of B lymphocyte blastgenesis caused by LPS; type: cell-based, BALB/C mouse; details: for inhibition at 4 µg/mL / inhibition at 20 µg/mL: Mus musculus, Lymphocyte, read-out: Inhibitory rate (%) on blastgenesis of B lymphocyte caused by LPS; for inhibition at 4 µg/mL: 4.0 μg/ml; for inhibition at 20 µg/mL: 20.0 μg/ml
# Experimental: (§1) In the similar method to Waithe et al. (Waithe et al., Handbook of Experimental Immunology, 26, 1, 1978), compounds OXT-X, 2-amino-OXT-A and OXT-G were examined for the effect on lymphocyte blastgenesis.
# Inhibition of B lymphocyte blastgenesis caused by LPS (lipopolysaccharide)
# According to the method of Test Example 1 (except that 100 μg/ml of Escherichia coli LPS was added in place of Con A), the intake of ^3 [H]-thymidine into blastgenesis B cells was measured. The inhibitory rate of the test sample was similarly determined.
# [3] = test system: T lymphocyte (spleen cells stimulated by Con A); assay: Inhibition of T lymphocyte blastgenesis caused by Con A; type: cell-based, BALB/C mouse; details: for inhibition at 0.8 µg/mL / inhibition at 4 µg/mL / inhibition at 20 µg/mL: Mus musculus, T-lymphocyte, read-out: Inhibitory rate (%) on T lymphocyte blastgenesis caused by Con A; for inhibition at 0.8 µg/mL: 0.8 μg/ml; for inhibition at 4 µg/mL: 4.0 μg/ml; for inhibition at 20 µg/mL: 20.0 μg/ml
# Experimental: as §1
# Inhibition of T lymphocyte blastgenesis caused by Con A:
# Spleen cells of BALB/C mouse were dividingly poured into microplate at a rate of 2×10^5 cells/0.2 ml/well. Test compounds of varied concentration were added to wells other than control group. Further, Con A was added to all the wells at a rate of 5 micrograms/ml. Then, the cell suspensions were cultured at 37° C. for 72 hours in a culture chamber having an atmosphere of 5% v/v carbon dioxide. The extent of lymphocyte blastgenesis was determined by adding 1 μci/well of ^3 [H]-thymidine 6 hours before completion of culture and measuring the intake into cultured cells by means of a liquid scintillation counter. Numerical value (1-B dpm/A dpm)×100 was taken as inhibitory rate of each sample compound on blastgenesis, wherein A dpm was intake count in the case of adding Con A only and B dpm was intake count in the case of adding Con A and the sample compound.
# [4] = test system: HIV (human immunodeficiency virus); assay: Anti-HIV activity (development of virus antigen in MT-4 cells); type: cell-based; details: DMSO only 80 to 90%
# Experimental: (b) Anti-HIV (human immunodeficiency virus) activity
# MT-4 cell (about 100,000 cells/ml) was added into a 24 well tray, and then 100 microliters of a solution containing a predetermined quantity of a compound of this invention was added. After culturing it at 37° C. for 5 hours in 5% (v/v) carbon dioxide incubator, 10^3 to 10^4 infection units of HIV was added and cultured for 4 days. Then, a part of the culture fluid was coated onto a slide glass and immobilized with acetone, after which development of virus antigen was observed by indirect fluorescent antibody method.
# As the primary antibody of the fluorescent antibody method, a serum of AIDS patient was used. As its secondary antibody, FITC-labelled […] was used.
# [5] = test system: herpes simplex virus type-2 (HSV-2) strain 186; assay: Effect of treatment against HSV-2 infection in mice; type: in vivo, ICR mice; details: 5 days
# Experimental: (a) Effect of treatment with OXTs against HSV-2 infection in mice
# The 8-week old male ICR mice were inoculated intraperitoneally (ip) with herpes simplex virus type-2(HSV-2)strain 186 at 2.5×10^5 PFU/0.2 ml/mouse. OXTs were administered ip once a day with the indicated doses for 5 days, starting 6 hours after inoculation. The survival rates (%)of mice treated with OXTs were evaluated at least for 3 weeks after inoculation.
# [6] = test system: murine cytomegalovirus (MCMV) Smith strain; assay: Titers of MCMV in various tissues of mice; type: in vivo, ICR mice; details: for Virus titer: 6 days after infection
# [7] = test system: duck hepatitis B virus (DHBV); assay: Efficacy against DHBV-infected duck (dot-blot hybridization of sera); type: in vivo; details: 6 days
# Experimental: (c) Efficacy of OXT-G and 2-Amino-OXT-A against DHBV-infected Duck Newborn ducklings were intraperitoneally infected with 50 μl of duck hepatitis B virus (DHBV) containing sera. Persistent infection in ducks was confirmed by dot-blot hybridization of sera taken from 6 week old ducks. Ducks were intraperitoneally treated with the indicated doses of OXT-G and 2-Animo-OXT-A once a day for 6 days. After treatment of OXTs sera were collected and examined for the presence of DHBV-DNA by dot-blot hybridization as ^32 p-labeled DHBV DNA probe.
# [8] = test system: murine cytomegalovirus (MCMV) Smith strain; assay: Efficacy against MCMV infection in mice, body weight; type: in vivo, ICR mice; details: 10 mg/kg/day
# Experimental: (b) Efficacy of treatment with OXT-G against MCMV infection in mice The 4-week old male ICR mice was inoculated intraperitoneally with Smith strain of murine cytomegalovirus (MCMV) at 1×10^5 PFU/0.2 ml and treated with 10 mg/kg/day of OXT-G once a day for 5 days, starting 6 hours after inoculation. The mortality and changes in body weight were monitored every day.
# [9] = test system: MT-4 cells; assay: Cell denaturation of MT-4 cells without virus; type: cell-based; details: 100 μg/ml
Compound,IC50 [1] [mg/L],effect on blastgenesis of B lymphocyte stimulated by LPS [2],inhibition at 4 µg/mL [2] [%],inhibition at 20 µg/mL [2] [%],effect on blastgenesis of T lymphocyte stimulated by Con A [3],inhibition at 0.8 µg/mL [3] [%],inhibition at 4 µg/mL [3] [%],inhibition at 20 µg/mL [3] [%],Development of virus antigen (%) ([4]; 1 μg/ml),Development of virus antigen (%) ([4]; 10 μg/ml),anti-cytomegalovirus inhibitory action [1],Survivor/Total ([5]; 10 mg/kg/day ip),survival rate (%) ([5]; 10 mg/kg/day ip),Content (%) of DHBV in sera ([7]; 20 mg/kg/day ip) [%],Content (%) of DHBV in sera ([7]; 50 mg/kg/day ip) [%],Content (%) of DHBV in sera ([7]; 100 mg/kg/day ip) [%],Development of virus antigen (%) ([4]; 100 μg/ml),Cell denaturation [9],also measured
"Nc1ncnc2c1ncn2[C@@H]1O[C@H](CO)[C@H]1CO [OXT-A, reference compound]",13,,,,,,,,,,,,,,,,,,
"O=c1[nH]cnc2c1ncn2[C@@H]1O[C@H](CO)[C@H]1CO [OXT-H, reference compound]",18,,,,,,,,,,,,,,,,,,
Nc1nc2c(ncn2[C@@H]2O[C@H](CO)[C@H]2CO)c(=O)[nH]1 [OXT-G],1,markedly suppressed,64,93,markedly suppressed,85,96,100,42,17,particularly outstanding in the inhibitory action,8/10,80,9,25,3,,,"Survivor/Total ([5]; 5 mg/kg/day ip): 3/10; survival rate (%) ([5]; 5 mg/kg/day ip): 30%; Survivor/Total ([5]; 20 mg/kg/day ip): 10/10; survival rate (%) ([5]; 20 mg/kg/day ip): 100%; Virus titer ([6]; Kidney): < 2 PFU/0.1 g tissue; Virus titer ([6]; Liver): < 2 PFU/0.1 g tissue; Virus titer ([6]; Lung): < 2 PFU/0.1 g tissue; Virus titer ([6]; Spleen): < 2 PFU/0.1 g tissue; quantity of MCMV recovered from the tissues ([6]; mouse, in vivo): significant reduction in the quantity of MCMV recovered from the tissues; body weight of MCMV-infected mice [8]: maintained their body weight on the initial level for several days and gradually gained weight thereafter; Average (5 mice) of body weight ([8]; day 0): 18.0 g; Average (5 mice) of body weight ([8]; day 4): 20.0 g; Average (5 mice) of body weight ([8]; day 8): 24.5 g; Average (5 mice) of body weight ([8]; day 14): 31.0 g"
Nc1nc(N)c2ncn([C@@H]3O[C@H](CO)[C@H]3CO)c2n1 [2-Amino-OXT-A],2,markedly suppressed,23,93,markedly suppressed,21,94,99,30,26,particularly outstanding in the inhibitory action,7/10,70,28,18,8,5,±~+,
O=c1[nH]c(=O)c2ncn([C@@H]3O[C@H](CO)[C@H]3CO)c2[nH]1 [OXT-X],,markedly suppressed,8,27,markedly suppressed,11,36,71,66,52,,,,,,,5,±~+,
